# Publication PMC8948257, “Limited solvation of an electron donating tryptophan stabilizes a photoinduced charge-separated state in plant (6–4) photolyase” (Scientific Reports, 2022)
# Positions count from the first letter of the chain named.
# Legend:
# Assay type in all cases: binding
# Conditions in all cases: 5 mM L-cysteine, 20 mM phosphate pH 7.5, 500 mM NaCl, 10% glycerol, anaerobic, >430 nm light, on ice; native bound cofactor
# [1] = biological target: T1, At64 ((6-4) photolyase from Arabidopsis thaliana) (Arabidopsis thaliana, UniProt O48652, H382D); assay: steady-state FAD photoreduction by UV-Vis
# T1 construct: gene UVR3; pET-28a(+) NdeI/XhoI, His-tagged, expressed in E. coli C41(DE3)/pLysS; TALON and heparin purification
# T1 sequence (O48652 20-556 H382D): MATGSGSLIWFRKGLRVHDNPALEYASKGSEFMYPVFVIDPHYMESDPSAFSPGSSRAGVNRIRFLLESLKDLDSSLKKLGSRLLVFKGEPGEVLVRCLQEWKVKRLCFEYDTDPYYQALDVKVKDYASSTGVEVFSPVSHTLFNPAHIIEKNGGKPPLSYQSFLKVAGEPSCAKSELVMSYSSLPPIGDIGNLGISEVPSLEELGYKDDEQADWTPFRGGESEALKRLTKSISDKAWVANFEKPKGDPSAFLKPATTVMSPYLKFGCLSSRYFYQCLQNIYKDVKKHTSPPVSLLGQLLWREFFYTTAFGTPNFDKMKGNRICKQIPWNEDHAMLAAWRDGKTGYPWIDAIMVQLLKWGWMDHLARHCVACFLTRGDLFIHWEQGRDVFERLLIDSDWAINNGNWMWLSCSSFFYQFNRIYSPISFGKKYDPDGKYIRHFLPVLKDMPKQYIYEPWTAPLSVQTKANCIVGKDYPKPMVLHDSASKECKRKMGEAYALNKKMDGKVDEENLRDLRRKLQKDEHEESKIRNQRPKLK
# [2] = biological target: T2, Xl64 (Xenopus laevis (6-4) PL) (Xenopus laevis, UniProt Q9I910, W370F/S372H, form not given); assay: steady-state FAD photoreduction by UV-Vis
# T2 construct: gene Xl64phr; pET28a(+), expressed in E. coli; only the W370F/S372H mutant made here
# T2 sequence (Q9I910 1-526 W370F/S372H): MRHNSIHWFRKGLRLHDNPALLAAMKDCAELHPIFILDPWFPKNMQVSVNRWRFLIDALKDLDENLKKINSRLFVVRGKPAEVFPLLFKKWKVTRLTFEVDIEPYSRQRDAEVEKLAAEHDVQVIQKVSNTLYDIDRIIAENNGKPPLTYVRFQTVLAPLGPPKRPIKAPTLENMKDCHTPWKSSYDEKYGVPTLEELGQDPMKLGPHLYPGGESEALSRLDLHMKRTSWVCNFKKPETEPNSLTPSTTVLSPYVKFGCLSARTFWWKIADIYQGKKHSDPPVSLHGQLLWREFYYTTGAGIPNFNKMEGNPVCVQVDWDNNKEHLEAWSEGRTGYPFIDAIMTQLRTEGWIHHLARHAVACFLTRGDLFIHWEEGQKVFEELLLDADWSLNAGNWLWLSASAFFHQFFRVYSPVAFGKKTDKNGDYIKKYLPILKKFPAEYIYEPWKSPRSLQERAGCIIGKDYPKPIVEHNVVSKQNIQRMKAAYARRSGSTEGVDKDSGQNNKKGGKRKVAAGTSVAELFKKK
# [3] = biological target: T3, At64 ((6-4) photolyase from Arabidopsis thaliana) (Arabidopsis thaliana, UniProt O48652, H382V); assay: steady-state FAD photoreduction by UV-Vis
# T3 construct: gene UVR3; pET-28a(+) NdeI/XhoI, His-tagged, expressed in E. coli C41(DE3)/pLysS; TALON and heparin purification
# T3 sequence (O48652 20-556 H382V): T1 sequence (O48652 20-556 H382D) with D363V
# [4] = biological target: T4, At64 ((6-4) photolyase from Arabidopsis thaliana) (Arabidopsis thaliana, UniProt O48652, H382Y); assay: steady-state FAD photoreduction by UV-Vis
# T4 construct: gene UVR3; pET-28a(+) NdeI/XhoI, His-tagged, expressed in E. coli C41(DE3)/pLysS; TALON and heparin purification
# T4 sequence (O48652 20-556 H382Y): T1 sequence (O48652 20-556 H382D) with D363Y
# [5] = biological target: T5, At64 ((6-4) photolyase from Arabidopsis thaliana) (Arabidopsis thaliana, UniProt O48652, H382S); assay: steady-state FAD photoreduction by UV-Vis; transient absorption
# T5 construct: gene UVR3; pET-28a(+) NdeI/XhoI, His-tagged, expressed in E. coli C41(DE3)/pLysS; TALON and heparin purification
# T5 sequence (O48652 20-556 H382S): T1 sequence (O48652 20-556 H382D) with D363S
# [6] = biological target: T6, At64 ((6-4) photolyase from Arabidopsis thaliana) (Arabidopsis thaliana, UniProt O48652, H382N); assay: steady-state FAD photoreduction by UV-Vis
# T6 construct: gene UVR3; pET-28a(+) NdeI/XhoI, His-tagged, expressed in E. coli C41(DE3)/pLysS; TALON and heparin purification
# T6 sequence (O48652 20-556 H382N): T1 sequence (O48652 20-556 H382D) with D363N
compound,measurement,setting,value
Cc1cc2nc3c(=O)[nH]c(=O)nc-3n(C[C@H](O)[C@H](O)[C@H](O)COP(=O)(O)OP(=O)(O)OC[C@H]3O[C@@H](n4cnc5c(N)ncnc54)[C@H](O)[C@@H]3O)c2cc1C [flavin adenine dinucleotide],steady-state FAD photoreduction by UV-Vis,[1],"we successfully purified the H382D, H382N, H382V and H382Y mutants of At64"
same,steady-state FAD photoreduction by UV-Vis,[2],the W370F/S372H double mutant of Xl64 (Xl64-W370F/S372H)
same,steady-state FAD photoreduction by UV-Vis,[3],"we successfully purified the H382D, H382N, H382V and H382Y mutants of At64"
same,steady-state FAD photoreduction by UV-Vis,[4],"we successfully purified the H382D, H382N, H382V and H382Y mutants of At64"
same,steady-state FAD photoreduction by UV-Vis; transient absorption,[5],FAD photoreduction in At64-H382S occurred with a half-life
same,steady-state FAD photoreduction by UV-Vis,[6],"we successfully purified the H382D, H382N, H382V and H382Y mutants of At64"
